According to patent US20090311237A1, “Combination therapy using a soluble hyaluronidase and a bisphosphonate” (priority 2008, published 2009):
Read-outs that look alike come from different tables or passages of the source.

Test: Pharmacokinetics of ZA in pig serum after IV or SC infusion with or without rHuPH20 (LC-MS-MS, non-compartmental analysis)
Assay type: in vivo
Details: ZA […], rHuPH20 0 U/mL
Method: A pharmacokinetic study of zoledronic acid (ZA) co-administered with rHuPH20 in female Yorkshire swines was conducted. The primary objective of the study was to determine the bioavailability of zoledronic acid dosed via subcutaneous (SC) co-administration with human recombinant hyaluronidase PH20 (rHuPH20) and to compare the overall exposure to an equivalent IV dose.
Animals in Study Group 1 were dosed with 0.15 mg/kg ZA given via a 20-minute IV infusion. Animals in Study Groups 2 and 3 were dosed subcutaneously (SC) with 0.15 mg/kg ZA without and with rHuPH20, respectively, in different SC delivery volumes.
Following ZA dose administration, serial blood samples were collected via vascular access ports (VAPs) for serum preparation and determination of ZA concentrations. Blood collection times were at 1, 3, 5, 10, 15, 20, 30, 45, and 60 minutes, and at 1.5, 2, 3, 4, 6, 8, 10, 24, 48, and 72 hours post dose. Urine samples were also collected to compare excretion characteristics between IV and SC routes of administration. Collection times for urine were at 15 minutes before dosing (−15 min.), continuously from dose initiation to 2 hours post dose, and at 4, 6, 8, and 24 hours post dose thereafter.
Serum concentration of ZA was determined using a qualified LC-MS-MS assay after derivatization with diazomethane (Zhu, L S et al. (2006) Rapid Commun. Mass Spectrom. 20: 3421-3426; “Qualification Data of An LC-MS/MS Method for the Determination of Zoledronate in Porcine Serum”, MDS Pharma Services Study No. AA43671-01, Report Date 14 Sep. 2007). The assay range was from 2.0 to 400 ng/mL with a lower limit of quantitation (LLOQ) at 2.0 ng/mL. Urine concentration of ZA was determined by a similar well qualified LC-MS-MS method (“Qualification Data of An LC-MS/MS Method for the Determination of Zoledronate in Porcine Urine”, MDS Pharma Services Study No. AA43671-02, Report Date 14 Sep. 2007) with an assay LLOQ at 10 ng/mL.
Pharmacokinetic (PK) analyses of ZA serum concentration versus time data were conducted using WinNonlin v5.1 (Pharsight, Mountain View, Calif.). Non-compartmental analysis was used for derivation of primary and secondary pharmacokinetic (PK) parameters. AUC, Cmax, and Tmax were compared between dose routes, between co-administration with rHuPH20, and with dose of rHuPH20.

[1] = female, Yorkshire, pig, serum, intravenous, […], animal ID 57, Study Group 1, IV 20 min infusion, read-out: Zoledronic Acid Serum Concentration
[2] = female, Yorkshire, pig, serum, intravenous, […], animal ID 61, Study Group 1, IV 20 min infusion, read-out: Zoledronic Acid Serum Concentration

Compound: O=P(O)(O)C(O)(Cn1ccnc1)P(=O)(O)O [ZA, 1-hydroxy-2-(1H-imidazol-1-yl)ethylidene-1,1-bisphosphonic acid]
- Zoledronic Acid Serum Concentration (Time 6 h, pig ID 59, Study Group 2, SC, 100 mL, 16 min): BLQ (BLQ = below assay limit of quantification (2.0 ng/mL))
- Zoledronic Acid Serum Concentration (Time 8 h, pig ID 59, Study Group 2, SC, 100 mL, 16 min): BLQ (BLQ = below assay limit of quantification (2.0 ng/mL))
- Zoledronic Acid Serum Concentration (Time 8 h, pig ID 60, Study Group 2, SC, 100 mL, 16 min): BLQ (BLQ = below assay limit of quantification (2.0 ng/mL))
- Zoledronic Acid Serum Concentration (Time 8 h, pig ID 62, Study Group 2, SC, 50 mL, 8 min): BLQ (BLQ = below assay limit of quantification (2.0 ng/mL))
- Zoledronic Acid Serum Concentration (Time 8 h, pig ID 69, Study Group 2, SC, 25 mL, 4 min): BLQ (BLQ = below assay limit of quantification (2.0 ng/mL))
- Zoledronic Acid Serum Concentration (Time 10 h, pig ID 59, Study Group 2, SC, 100 mL, 16 min): BLQ (BLQ = below assay limit of quantification (2.0 ng/mL))
- Zoledronic Acid Serum Concentration (Time 10 h, pig ID 60, Study Group 2, SC, 100 mL, 16 min): BLQ (BLQ = below assay limit of quantification (2.0 ng/mL))
- Zoledronic Acid Serum Concentration (Time 10 h, pig ID 62, Study Group 2, SC, 50 mL, 8 min): BLQ (BLQ = below assay limit of quantification (2.0 ng/mL))
- Zoledronic Acid Serum Concentration (Time 10 h, pig ID 69, Study Group 2, SC, 25 mL, 4 min): BLQ (BLQ = below assay limit of quantification (2.0 ng/mL))
- Zoledronic Acid Serum Concentration (Time 10 h, pig ID 70, Study Group 2, SC, 10 mL, 1.6 min): BLQ (BLQ = below assay limit of quantification (2.0 ng/mL))
- Zoledronic Acid Serum Concentration (Time 24 h, pig ID 59, Study Group 2, SC, 100 mL, 16 min): BLQ (BLQ = below assay limit of quantification (2.0 ng/mL))
- Zoledronic Acid Serum Concentration (Time 24 h, pig ID 60, Study Group 2, SC, 100 mL, 16 min): BLQ (BLQ = below assay limit of quantification (2.0 ng/mL))
- Zoledronic Acid Serum Concentration (Time 24 h, pig ID 62, Study Group 2, SC, 50 mL, 8 min): BLQ (BLQ = below assay limit of quantification (2.0 ng/mL))
- Zoledronic Acid Serum Concentration (Time 24 h, pig ID 69, Study Group 2, SC, 25 mL, 4 min): BLQ (BLQ = below assay limit of quantification (2.0 ng/mL))
- Zoledronic Acid Serum Concentration (Time 24 h, pig ID 70, Study Group 2, SC, 10 mL, 1.6 min): BLQ (BLQ = below assay limit of quantification (2.0 ng/mL))
- Zoledronic Acid Serum Concentration (Time 48 h, pig ID 59, Study Group 2, SC, 100 mL, 16 min): BLQ (BLQ = below assay limit of quantification (2.0 ng/mL))
- Zoledronic Acid Serum Concentration (Time 48 h, pig ID 60, Study Group 2, SC, 100 mL, 16 min): BLQ (BLQ = below assay limit of quantification (2.0 ng/mL))
- Zoledronic Acid Serum Concentration (Time 48 h, pig ID 62, Study Group 2, SC, 50 mL, 8 min): BLQ (BLQ = below assay limit of quantification (2.0 ng/mL))
- Zoledronic Acid Serum Concentration (Time 48 h, pig ID 69, Study Group 2, SC, 25 mL, 4 min): BLQ (BLQ = below assay limit of quantification (2.0 ng/mL))
- Zoledronic Acid Serum Concentration (Time 48 h, pig ID 70, Study Group 2, SC, 10 mL, 1.6 min): BLQ (BLQ = below assay limit of quantification (2.0 ng/mL))
- Zoledronic Acid Serum Concentration (Time 72 h, pig ID 59, Study Group 2, SC, 100 mL, 16 min): BLQ (BLQ = below assay limit of quantification (2.0 ng/mL))
- Zoledronic Acid Serum Concentration (Time 72 h, pig ID 60, Study Group 2, SC, 100 mL, 16 min): BLQ (BLQ = below assay limit of quantification (2.0 ng/mL))
- Zoledronic Acid Serum Concentration (Time 72 h, pig ID 62, Study Group 2, SC, 50 mL, 8 min): BLQ (BLQ = below assay limit of quantification (2.0 ng/mL))
- Zoledronic Acid Serum Concentration (Time 72 h, pig ID 69, Study Group 2, SC, 25 mL, 4 min): BLQ (BLQ = below assay limit of quantification (2.0 ng/mL))
- Zoledronic Acid Serum Concentration (Time 72 h, pig ID 70, Study Group 2, SC, 10 mL, 1.6 min): BLQ (BLQ = below assay limit of quantification (2.0 ng/mL))
- Zoledronic Acid Serum Concentration (Time […], pig ID 60, Study Group 2, SC, 100 mL, 16 min): BLQ (BLQ = below assay limit of quantification (2.0 ng/mL))
- Zoledronic Acid Serum Concentration (Time […], pig ID 62, Study Group 2, SC, 50 mL, 8 min): BLQ (BLQ = below assay limit of quantification (2.0 ng/mL))
- Zoledronic Acid Serum Concentration (Time […], pig ID 69, Study Group 2, SC, 25 mL, 4 min): BLQ (BLQ = below assay limit of quantification (2.0 ng/mL))
- Zoledronic Acid Serum Concentration (Time […], pig ID 70, Study Group 2, SC, 10 mL, 1.6 min): BLQ (BLQ = below assay limit of quantification (2.0 ng/mL))
- Zoledronic Acid Serum Concentration (animal ID 57, Study Group 1, IV 20 min infusion, time 6 h): BLQ^a (BLQ = below assay limit of quantification (2.0 ng/mL))
- Zoledronic Acid Serum Concentration (animal ID 57, Study Group 1, IV 20 min infusion, time 8 h): BLQ (BLQ = below assay limit of quantification (2.0 ng/mL))
- Zoledronic Acid Serum Concentration (animal ID 57, Study Group 1, IV 20 min infusion, time 10 h): BLQ (BLQ = below assay limit of quantification (2.0 ng/mL))
- Zoledronic Acid Serum Concentration (animal ID 57, Study Group 1, IV 20 min infusion, time 24 h): BLQ (BLQ = below assay limit of quantification (2.0 ng/mL))
- Zoledronic Acid Serum Concentration (animal ID 57, Study Group 1, IV 20 min infusion, time 48 h): BLQ (BLQ = below assay limit of quantification (2.0 ng/mL))
- Zoledronic Acid Serum Concentration (animal ID 57, Study Group 1, IV 20 min infusion, time 72 h): BLQ (BLQ = below assay limit of quantification (2.0 ng/mL))
- Zoledronic Acid Serum Concentration (animal ID 57, Study Group 1, IV 20 min infusion, time […]): BLQ (BLQ = below assay limit of quantification (2.0 ng/mL))
- Zoledronic Acid Serum Concentration (animal ID 61, Study Group 1, IV 20 min infusion, time 6 h): BLQ (BLQ = below assay limit of quantification (2.0 ng/mL))
- Zoledronic Acid Serum Concentration (animal ID 61, Study Group 1, IV 20 min infusion, time 8 h): BLQ (BLQ = below assay limit of quantification (2.0 ng/mL))
- Zoledronic Acid Serum Concentration (animal ID 61, Study Group 1, IV 20 min infusion, time 10 h): BLQ (BLQ = below assay limit of quantification (2.0 ng/mL))
- Zoledronic Acid Serum Concentration (animal ID 61, Study Group 1, IV 20 min infusion, time 24 h): BLQ (BLQ = below assay limit of quantification (2.0 ng/mL))
- Zoledronic Acid Serum Concentration (animal ID 61, Study Group 1, IV 20 min infusion, time 48 h): BLQ (BLQ = below assay limit of quantification (2.0 ng/mL))
- Zoledronic Acid Serum Concentration (animal ID 61, Study Group 1, IV 20 min infusion, time 72 h): BLQ (BLQ = below assay limit of quantification (2.0 ng/mL))
- Zoledronic Acid Serum Concentration (animal ID 61, Study Group 1, IV 20 min infusion, time […]): BLQ (BLQ = below assay limit of quantification (2.0 ng/mL))
- Zoledronic Acid Serum Concentration (animal ID 67, Study Group 1, IV 20 min infusion, time 6 h): BLQ (BLQ = below assay limit of quantification (2.0 ng/mL))
- Zoledronic Acid Serum Concentration (animal ID 67, Study Group 1, IV 20 min infusion, time 8 h): BLQ (BLQ = below assay limit of quantification (2.0 ng/mL))
- Zoledronic Acid Serum Concentration (animal ID 67, Study Group 1, IV 20 min infusion, time 10 h): BLQ (BLQ = below assay limit of quantification (2.0 ng/mL))
- Zoledronic Acid Serum Concentration (animal ID 67, Study Group 1, IV 20 min infusion, time 24 h): BLQ (BLQ = below assay limit of quantification (2.0 ng/mL))
- Zoledronic Acid Serum Concentration (animal ID 67, Study Group 1, IV 20 min infusion, time 48 h): BLQ (BLQ = below assay limit of quantification (2.0 ng/mL))
- Zoledronic Acid Serum Concentration (animal ID 67, Study Group 1, IV 20 min infusion, time 72 h): BLQ (BLQ = below assay limit of quantification (2.0 ng/mL))
- Zoledronic Acid Serum Concentration (animal ID 67, Study Group 1, IV 20 min infusion, time […]): BLQ (BLQ = below assay limit of quantification (2.0 ng/mL))
- concentration at 0.016 h [1]: 255 ng/mL
- concentration at 0.05 h [1]: 446 ng/mL
- concentration at 0.333 h [1]: 388 ng/mL
- concentration at 0.5 h (female, Yorkshire, pig, serum, intravenous, […], animal ID 57, Study Group 1, IV 20 min infusion, time 0.50 h, read-out: Zoledronic Acid Serum Concentration): 244 ng/mL
- concentration at 1 h (female, Yorkshire, pig, serum, intravenous, […], animal ID 57, Study Group 1, IV 20 min infusion, time 1.00 h, read-out: Zoledronic Acid Serum Concentration): 71.4 ng/mL
- concentration at 2 h (female, Yorkshire, pig, serum, intravenous, […], animal ID 57, Study Group 1, IV 20 min infusion, time 2 h, read-out: Zoledronic Acid Serum Concentration): 15.4 ng/mL
- concentration at 3 h (female, Yorkshire, pig, serum, intravenous, […], animal ID 57, Study Group 1, IV 20 min infusion, time 3 h, read-out: Zoledronic Acid Serum Concentration): 5.8 ng/mL
- concentration at 4 h (female, Yorkshire, pig, serum, intravenous, […], animal ID 57, Study Group 1, IV 20 min infusion, time 4 h, read-out: Zoledronic Acid Serum Concentration): 2.8 ng/mL
- concentration at 0.016 h [2]: 254 ng/mL
- concentration at 0.05 h [2]: 196 ng/mL
- concentration at 0.333 h [2]: 596 ng/mL
- concentration at 0.5 h (female, Yorkshire, pig, serum, intravenous, […], animal ID 61, Study Group 1, IV 20 min infusion, time 0.5 h, read-out: Zoledronic Acid Serum Concentration): 299 ng/mL
- concentration at 1 h (female, Yorkshire, pig, serum, intravenous, […], animal ID 61, Study Group 1, IV 20 min infusion, time 1 h, read-out: Zoledronic Acid Serum Concentration): 85.5 ng/mL
